In ChEMBL document CHEMBL3784947, “Pharmacophore elucidation of phosphoiodyn A - Potent and selective peroxisome proliferator-activated receptor β/δ agonists with neuroprotective activity” (Bioorg Med Chem Lett, 2016):
Activity calls are given as the source filed them. The rule behind the calls is not given here.

Tests used:
[1] = target: T1, Peroxisome proliferator-activated receptor delta (Homo sapiens, UniProt Q03181); experiment: Agonist activity at PPAR delta (unknown origin) transfected in HEK293 cells after 24 hrs by dual-luciferase reporter gene assay; format: cell-based
T1 sequence (Q03181 whole entry): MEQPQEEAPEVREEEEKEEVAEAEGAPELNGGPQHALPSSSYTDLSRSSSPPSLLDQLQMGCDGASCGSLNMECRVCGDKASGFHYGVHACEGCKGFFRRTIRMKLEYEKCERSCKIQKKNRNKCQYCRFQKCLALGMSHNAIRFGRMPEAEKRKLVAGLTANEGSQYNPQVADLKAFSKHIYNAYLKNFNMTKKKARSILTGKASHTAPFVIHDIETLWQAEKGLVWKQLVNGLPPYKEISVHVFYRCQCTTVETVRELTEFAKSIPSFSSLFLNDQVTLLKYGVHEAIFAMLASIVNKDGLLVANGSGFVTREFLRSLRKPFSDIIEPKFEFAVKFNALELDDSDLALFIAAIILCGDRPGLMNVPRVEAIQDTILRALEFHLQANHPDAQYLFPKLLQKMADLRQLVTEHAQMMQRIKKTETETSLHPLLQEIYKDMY

[2] = target: T1, Peroxisome proliferator-activated receptor delta; experiment: Agonist activity at human PPAR delta by cell based cotransfection assay
[3] = target: PPAR delta/gamma (Homo sapiens) (UniProt P37231+Q03181); experiment: Ratio of EC50 for human PPAR gamma to EC50 for human PPAR delta
Homo sapiens = species: Homo sapiens; experiment: Ratio of EC50 for human PPAR alpha to EC50 for human PPAR delta
PC-12 [4] = experiment: Neuroprotective activity against serum starvation-induced apoptosis in rat PC12 cells assessed as cell survival at 1 to 30 uM after 24 hrs by prestoblue staining based fluorescence assay (reference value: 55%); format: functional
PC-12 [5] = experiment: Neuroprotective activity against etoposide-induced apoptosis in rat PC12 cells assessed as cell viability at 3 uM preincubated for 4 hrs followed by etoposide addition measured after 48 hrs by prestoblue staining based fluorescence assay (reference value: 52 %); format: functional; details: read-out: Activity
[6] = target: T2, Peroxisome proliferator-activated receptor gamma (Homo sapiens) (UniProt P37231); experiment: Agonist activity at PPAR gamma (unknown origin) transfected in HEK293 cells at 0.1 to 100 uM after 24 hrs by DR-1 luciferase reporter gene assay; format: cell-based
T2 sequence (whole entry): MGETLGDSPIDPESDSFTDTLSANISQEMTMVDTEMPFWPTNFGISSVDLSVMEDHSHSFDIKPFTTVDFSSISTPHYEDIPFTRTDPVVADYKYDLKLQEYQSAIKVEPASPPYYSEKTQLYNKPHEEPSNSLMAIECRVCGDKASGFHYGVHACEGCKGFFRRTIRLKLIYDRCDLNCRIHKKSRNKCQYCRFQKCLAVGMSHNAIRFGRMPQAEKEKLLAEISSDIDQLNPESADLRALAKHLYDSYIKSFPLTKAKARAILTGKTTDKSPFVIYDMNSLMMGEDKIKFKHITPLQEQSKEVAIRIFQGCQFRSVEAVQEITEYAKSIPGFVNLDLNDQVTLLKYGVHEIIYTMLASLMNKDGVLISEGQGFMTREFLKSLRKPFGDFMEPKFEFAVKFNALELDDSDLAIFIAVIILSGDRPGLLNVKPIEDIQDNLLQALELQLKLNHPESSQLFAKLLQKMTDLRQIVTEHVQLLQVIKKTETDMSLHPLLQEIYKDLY

[7] = target: T2, Peroxisome proliferator-activated receptor gamma (Homo sapiens); experiment: Agonist activity at PPAR gamma (unknown origin) transfected in HEK293 cells at 1 uM after 24 hrs by dual-luciferase reporter gene assay; format: cell-based
[8] = target: T3, Peroxisome proliferator-activated receptor alpha (Homo sapiens) (UniProt Q07869); experiment: Agonist activity at PPAR alpha (unknown origin) transfected in HEK293 cells at 1 uM after 24 hrs by dual-luciferase reporter gene assay; format: cell-based
T3 sequence (whole entry): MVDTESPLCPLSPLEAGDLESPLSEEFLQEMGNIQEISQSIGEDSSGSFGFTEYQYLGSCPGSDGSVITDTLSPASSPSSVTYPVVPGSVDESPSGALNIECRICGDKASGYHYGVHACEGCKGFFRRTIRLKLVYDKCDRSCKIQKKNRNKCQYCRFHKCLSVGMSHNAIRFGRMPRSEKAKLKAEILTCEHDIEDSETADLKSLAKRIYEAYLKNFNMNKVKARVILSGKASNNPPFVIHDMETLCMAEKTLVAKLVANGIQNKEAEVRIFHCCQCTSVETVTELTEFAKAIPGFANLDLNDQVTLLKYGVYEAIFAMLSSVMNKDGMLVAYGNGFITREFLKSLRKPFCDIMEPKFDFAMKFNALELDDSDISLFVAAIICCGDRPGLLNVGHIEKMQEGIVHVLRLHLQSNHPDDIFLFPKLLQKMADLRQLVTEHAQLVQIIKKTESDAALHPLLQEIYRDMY

[9] = target: T1, Peroxisome proliferator-activated receptor delta; experiment: Agonist activity at PPAR delta (unknown origin)
PC-12 [10] = experiment: Neuroprotective activity against etoposide-induced apoptosis in rat PC12 cells assessed as cell viability at 1 uM preincubated for 4 hrs followed by etoposide addition measured after 48 hrs by prestoblue staining based fluorescence assay; format: functional
[11] = target: T4, Peroxisome proliferator-activated receptor delta (Homo sapiens) (UniProt Q03181); experiment: Agonist activity at PPAR delta (unknown origin) transfected in HEK293 cells at 1 uM after 24 hrs by dual-luciferase reporter gene assay; format: cell-based
T4 sequence (whole entry): T1 sequence (Q03181 whole entry)

[12] = target: T4, Peroxisome proliferator-activated receptor delta (Homo sapiens); experiment: Agonist activity at PPAR delta (unknown origin) transfected in HEK293 cells at 0.001 to 1000 uM after 24 hrs by DR-4 luciferase reporter gene assay; format: cell-based
[13] = target: T4, Peroxisome proliferator-activated receptor delta (Homo sapiens); experiment: Agonist activity at PPAR delta (unknown origin) transfected in HEK293 cells at 0.001 to 1000 uM after 24 hrs by pGL3-Luciferase reporter gene assay; format: cell-based

| Structure (SMILES) | EC50 [1] [nM] | Survival (PC-12 [4]) [%] | viability at 3 µM (PC-12 [5]) [%] | Activity [6] | Activity [7] | Activity [8] | Activity [11] | also measured |
| --- | --- | --- | --- | --- | --- | --- | --- | --- |
| O=P(O)(CCO)OCCC#CC#CCCCCCC/C=C/I | 24 | – | – | – | – | – | – | EC50 [2]: 23.7 nM; Ratio EC50 [3]: > 200; Ratio EC50 (Homo sapiens): > 200 |
| CCOC(=O)Nc1ccc(NCc2ccc(F)cc2)nc1N [FLUPIRTINE] | – | 82 | 80 | – | – | – | – | – |
| O=P(O)(O)CCO | > 100000 | – | – | inactive | inactive | inactive | – | – |
| C[C@@H]1CN(c2ccc(OC(F)(F)F)cc2)C[C@H](C)N1S(=O)(=O)c1cccc2c1C[C@@H](C(=O)O)C2 | – | – | – | – | – | – | – | EC50 [9]: 1.5 nM |
| CN(CCOc1ccc(CC2SC(=O)NC2=O)cc1)c1ccccn1 (stereo not given) | – | – | – | – | Active | – | – | – |
| CCOP(=O)(O)CCO | 78 | 77 | 110 | inactive | inactive | inactive | Active | Activity (PC-12 [10]): Active; Activity [12]: inactive; Activity [13]: inactive |
| O=P(O)(OCO)OCCC#CC#CCCCCCC/C=C/I | > 10000 | – | – | – | – | – | – | EC50 [2]: > 10 nM |
| Cc1cccc(Nc2cc(Cl)nc(SCC(=O)O)n2)c1C | – | – | – | – | – | Active | – | – |
| CCOP(=O)(CCO)OCC | 112 | 78 | 116 | inactive | inactive | inactive | Active | Activity (PC-12 [10]): Active; Activity [12]: inactive; Activity [13]: inactive |
| CCOC(=O)CCO | > 1000 | – | – | Active | Active | Active | Active | – |
